For 24 compounds, AC50 results are on record in ChEMBL document CHEMBL5291721, “A preclinical secondary pharmacology resource illuminates target-adverse drug reaction associations of marketed drugs” (Nat Commun, 2023).

Test [1] addresses T1, Alpha-2A adrenergic receptor (Homo sapiens, UniProt P08913).
T1 sequence (P08913 whole entry): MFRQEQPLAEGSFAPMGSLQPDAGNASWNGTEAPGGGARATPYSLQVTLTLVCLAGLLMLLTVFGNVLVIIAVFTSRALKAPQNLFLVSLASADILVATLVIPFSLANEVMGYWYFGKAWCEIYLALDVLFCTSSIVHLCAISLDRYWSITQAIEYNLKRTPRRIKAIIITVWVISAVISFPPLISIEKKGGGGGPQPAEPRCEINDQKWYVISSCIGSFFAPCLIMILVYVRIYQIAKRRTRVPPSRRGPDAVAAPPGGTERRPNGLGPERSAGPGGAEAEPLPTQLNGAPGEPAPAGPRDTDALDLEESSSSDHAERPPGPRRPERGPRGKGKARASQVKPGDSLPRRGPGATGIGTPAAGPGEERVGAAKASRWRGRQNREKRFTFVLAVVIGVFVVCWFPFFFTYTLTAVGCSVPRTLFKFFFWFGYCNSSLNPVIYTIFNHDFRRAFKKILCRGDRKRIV

The target of test [2] is T2, Alpha-1A adrenergic receptor (Homo sapiens, UniProt P35348).
T2 sequence (P35348 whole entry): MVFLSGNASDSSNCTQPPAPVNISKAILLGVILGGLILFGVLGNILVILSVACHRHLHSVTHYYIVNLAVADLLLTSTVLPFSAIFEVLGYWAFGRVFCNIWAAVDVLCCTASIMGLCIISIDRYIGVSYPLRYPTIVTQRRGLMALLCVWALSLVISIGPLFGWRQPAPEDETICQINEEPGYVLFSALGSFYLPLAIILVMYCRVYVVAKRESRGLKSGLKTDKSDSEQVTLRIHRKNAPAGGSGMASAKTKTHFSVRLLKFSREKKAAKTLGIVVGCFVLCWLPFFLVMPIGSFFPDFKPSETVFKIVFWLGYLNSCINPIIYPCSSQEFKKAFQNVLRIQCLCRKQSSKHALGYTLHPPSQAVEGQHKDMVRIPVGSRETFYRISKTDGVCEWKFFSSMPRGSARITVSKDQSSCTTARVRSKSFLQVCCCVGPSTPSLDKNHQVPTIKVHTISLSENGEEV
Type of test: functional, cell-based.

Test [3] concerns the target T3, Muscarinic acetylcholine receptor M2 (Homo sapiens, UniProt P08172).
T3 sequence (P08172 whole entry): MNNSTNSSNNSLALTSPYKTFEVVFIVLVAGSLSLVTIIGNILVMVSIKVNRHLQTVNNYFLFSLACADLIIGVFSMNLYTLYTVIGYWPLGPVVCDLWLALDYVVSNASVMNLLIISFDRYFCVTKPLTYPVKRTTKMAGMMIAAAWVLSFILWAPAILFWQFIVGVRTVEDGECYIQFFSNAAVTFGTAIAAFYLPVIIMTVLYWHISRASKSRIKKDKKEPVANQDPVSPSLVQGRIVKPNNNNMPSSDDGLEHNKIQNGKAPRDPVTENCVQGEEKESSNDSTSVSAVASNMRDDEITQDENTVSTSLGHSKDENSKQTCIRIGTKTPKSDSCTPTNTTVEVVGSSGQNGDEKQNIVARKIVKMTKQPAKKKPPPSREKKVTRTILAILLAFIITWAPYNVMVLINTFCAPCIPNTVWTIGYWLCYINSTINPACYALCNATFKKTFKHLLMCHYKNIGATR

The target of test [4] is T4, Muscarinic acetylcholine receptor M1 (Homo sapiens, UniProt P11229).
T4 sequence (P11229 whole entry): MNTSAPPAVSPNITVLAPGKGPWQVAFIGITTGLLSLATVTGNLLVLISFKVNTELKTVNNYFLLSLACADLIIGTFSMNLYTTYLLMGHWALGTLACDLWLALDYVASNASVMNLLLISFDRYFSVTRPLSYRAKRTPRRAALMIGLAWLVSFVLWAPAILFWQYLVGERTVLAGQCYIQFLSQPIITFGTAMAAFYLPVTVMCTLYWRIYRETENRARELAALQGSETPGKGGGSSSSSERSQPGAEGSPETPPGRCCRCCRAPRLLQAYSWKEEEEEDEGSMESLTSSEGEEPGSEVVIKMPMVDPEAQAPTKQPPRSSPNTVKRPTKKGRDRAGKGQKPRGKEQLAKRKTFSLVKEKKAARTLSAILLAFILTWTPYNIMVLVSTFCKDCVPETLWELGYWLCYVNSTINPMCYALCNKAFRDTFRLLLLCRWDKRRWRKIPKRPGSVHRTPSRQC
Type of test: functional, cell-based.

Test [5] deals with Beta-1 adrenergic receptor (Homo sapiens, UniProt P08588). It counts as functional.
Sequence of Beta-1 adrenergic receptor (P08588 whole entry): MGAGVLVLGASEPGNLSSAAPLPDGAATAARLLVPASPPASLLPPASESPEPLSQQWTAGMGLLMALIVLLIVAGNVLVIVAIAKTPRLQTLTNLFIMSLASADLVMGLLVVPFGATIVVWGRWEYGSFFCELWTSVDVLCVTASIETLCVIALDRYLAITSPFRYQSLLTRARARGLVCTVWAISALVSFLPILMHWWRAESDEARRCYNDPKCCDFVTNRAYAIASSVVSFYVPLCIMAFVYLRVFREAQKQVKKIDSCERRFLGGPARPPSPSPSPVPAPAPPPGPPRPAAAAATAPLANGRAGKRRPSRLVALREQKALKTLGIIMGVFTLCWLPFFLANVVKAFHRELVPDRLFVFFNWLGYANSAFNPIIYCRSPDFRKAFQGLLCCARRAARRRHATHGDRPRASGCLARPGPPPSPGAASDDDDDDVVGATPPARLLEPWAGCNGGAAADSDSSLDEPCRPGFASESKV
The next test deals with T5, Glucocorticoid receptor (Homo sapiens, UniProt P04150).
T5 sequence (P04150 whole entry): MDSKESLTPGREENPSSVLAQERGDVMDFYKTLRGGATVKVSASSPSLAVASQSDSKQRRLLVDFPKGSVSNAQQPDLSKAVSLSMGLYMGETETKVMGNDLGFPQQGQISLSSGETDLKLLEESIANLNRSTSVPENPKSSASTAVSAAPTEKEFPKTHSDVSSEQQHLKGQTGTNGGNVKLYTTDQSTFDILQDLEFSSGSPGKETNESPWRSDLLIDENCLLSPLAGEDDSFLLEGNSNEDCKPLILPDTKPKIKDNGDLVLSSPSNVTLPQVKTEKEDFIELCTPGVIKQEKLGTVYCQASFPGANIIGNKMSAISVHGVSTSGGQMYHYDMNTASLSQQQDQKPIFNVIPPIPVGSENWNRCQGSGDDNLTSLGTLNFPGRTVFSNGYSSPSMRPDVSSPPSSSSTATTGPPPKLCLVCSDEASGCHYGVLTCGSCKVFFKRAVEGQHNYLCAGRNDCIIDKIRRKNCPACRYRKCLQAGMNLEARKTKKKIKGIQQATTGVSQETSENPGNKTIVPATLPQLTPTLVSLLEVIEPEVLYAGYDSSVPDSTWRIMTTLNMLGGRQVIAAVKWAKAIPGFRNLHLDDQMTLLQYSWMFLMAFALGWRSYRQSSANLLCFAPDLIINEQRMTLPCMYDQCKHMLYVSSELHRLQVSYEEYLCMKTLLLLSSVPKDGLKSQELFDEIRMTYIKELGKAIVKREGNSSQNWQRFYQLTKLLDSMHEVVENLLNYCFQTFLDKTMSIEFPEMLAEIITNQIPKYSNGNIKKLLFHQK

Test [6] addresses T1, Alpha-2A adrenergic receptor. It counts as functional, cell-based.
Test [7] concerns the target T2, Alpha-1A adrenergic receptor. Type of test: functional, cell-based. This is another data set of the same source.
A further test addresses Histamine H1 receptor (Homo sapiens, UniProt P35367).
Another test deals with Cannabinoid receptor 1 (Homo sapiens, UniProt P21554). It counts as functional, cell-based.
Sequence of Cannabinoid receptor 1 (P21554 whole entry): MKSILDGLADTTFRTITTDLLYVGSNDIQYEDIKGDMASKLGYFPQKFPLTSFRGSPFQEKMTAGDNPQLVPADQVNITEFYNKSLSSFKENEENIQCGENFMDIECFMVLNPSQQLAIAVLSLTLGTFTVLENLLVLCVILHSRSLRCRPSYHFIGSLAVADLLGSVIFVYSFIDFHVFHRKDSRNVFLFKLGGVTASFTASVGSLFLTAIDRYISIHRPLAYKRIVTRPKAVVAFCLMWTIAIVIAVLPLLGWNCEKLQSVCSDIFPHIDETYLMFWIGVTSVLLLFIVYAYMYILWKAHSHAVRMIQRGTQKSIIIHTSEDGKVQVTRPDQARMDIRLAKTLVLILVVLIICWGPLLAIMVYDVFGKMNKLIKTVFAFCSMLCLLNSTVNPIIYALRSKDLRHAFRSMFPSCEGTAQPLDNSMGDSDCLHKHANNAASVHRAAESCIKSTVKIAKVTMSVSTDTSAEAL

Some results are limits rather than exact numbers.

What is called AC50 is the midpoint of the concentration-response curve, whichever way the signal moves. The low end stands for activity at low concentration, the high end for activity only at high concentration.
Also: assay procedure not described here.

Sequence of Histamine H1 receptor (P35367 whole entry): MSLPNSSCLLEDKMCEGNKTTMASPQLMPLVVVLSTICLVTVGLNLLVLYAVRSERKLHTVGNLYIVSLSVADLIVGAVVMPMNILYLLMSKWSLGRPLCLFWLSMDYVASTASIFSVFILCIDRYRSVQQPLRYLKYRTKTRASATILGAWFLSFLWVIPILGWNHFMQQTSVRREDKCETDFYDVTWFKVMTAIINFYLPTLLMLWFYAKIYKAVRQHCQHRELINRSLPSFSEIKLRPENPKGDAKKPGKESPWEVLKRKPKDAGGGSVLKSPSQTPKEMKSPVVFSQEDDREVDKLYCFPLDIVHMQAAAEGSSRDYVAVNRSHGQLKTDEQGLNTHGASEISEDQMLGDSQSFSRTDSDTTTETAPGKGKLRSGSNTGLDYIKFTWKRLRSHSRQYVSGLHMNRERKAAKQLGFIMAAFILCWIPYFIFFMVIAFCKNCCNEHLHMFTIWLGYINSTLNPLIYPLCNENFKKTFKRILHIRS

For the compound `CC(C)N(CCNC(=O)CN1CCCC1=O)C(C)C`, the AC50 in test [1], in [2], in test [3] and in test [4] was > 30 µM each time.

Consider `Cc1cc(N)c2ccccc2[n+]1CCCCCCCCCC[n+]1c(C)cc(N)c2ccccc21`, for which the AC50 in [1] is 0.464 µM; in [2] it was 3.21 µM; in test [3], 0.0497 µM; in test [4], > 30 µM.

As for `CCOC(=O)[C@H](CCc1ccccc1)N[C@@H](C)C(=O)N(CC(=O)O)C1Cc2ccccc2C1`, the concentration at half-maximal activity (AC50) in test [1], in [2], in test [3] and in [4] was > 30 µM in each case.

For `C=CCSCC1Nc2cc(Cl)c(S(N)(=O)=O)cc2S(=O)(=O)N1` (stereo unspecified) [ALTHIAZIDE], the AC50 in test [1], in [2], in [3] and in test [4] was > 30 µM in each case.

As for `CCN(CCCc1ccccc1)CCCc1ccccc1` [ALVERINE], the AC50 was 1.96 µM in [1], 0.978 µM in test [2], 0.134 µM in test [3] and > 30 µM in test [4].

Take `COc1cc(N2CCC(N3CCN(C)CC3)CC2)ccc1Nc1ncc(Cl)c(Nc2ccccc2P(C)(C)=O)n1` [BRIGATINIB]: the concentration at half-maximal activity (AC50) in test [1], in test [2], in test [3] and in test [4] was > 30 µM throughout.

In the case of `CN(C)CCOC(c1ccccc1)c1ccc(Br)cc1` (stereo unspecified) [BROMODIPHENHYDRAMINE], the concentration at half-maximal activity (AC50) is 8.38 µM in test [1], > 10 µM in [2], 1.42 µM in test [3] and > 30 µM in [4].

On to `CC(=O)O[C@]1(C(C)=O)CC[C@H]2[C@@H]3C=C(Cl)C4=CC(=O)CC[C@]4(C)[C@H]3CC[C@@]21C` [CHLORMADINONE ACETATE], for which the half-maximal activity concentration (AC50) in test [1] was > 30 µM; in [2] it was 18 µM; in [3] it was 25.3 µM.

With `NC(=O)OCC(O)COc1ccc(Cl)cc1` (stereo unspecified) [CHLORPHENESIN CARBAMATE], the AC50 in test [1], in test [2], in [3] and in test [4] was > 30 µM each time.

With `CCN(CC)C(=S)S` [DITIOCARB], the AC50 was > 30 µM in test [1], > 1 µM in test [2], > 30 µM in test [3] and > 30 µM in [4].

For the compound `CC(C(=O)O)c1ccc(-c2ccccc2)c(F)c1` (stereo unspecified) [FLURBIPROFEN], the half-maximal activity concentration (AC50) in [5] was > 10 µM; in test [1], > 30 µM; at Glucocorticoid receptor it was > 30 µM; in test [2], > 30 µM; in test [3], > 30 µM; in test [6] it was > 10 µM.

Turning to `Cc1cnc(C(=O)NCCc2ccc(S(=O)(=O)NC(=O)NC3CCCCC3)cc2)cn1` [GLIPIZIDE], the half-maximal activity concentration (AC50) is > 10 µM in test [5]; > 30 µM in test [1]; > 30 µM on Glucocorticoid receptor; > 3 µM in test [2]; > 10 µM in [6].

On to `CCC(=O)O[C@]1(C(=O)CCl)[C@@H](C)C[C@H]2[C@@H]3C[C@H](F)C4=CC(=O)C=C[C@]4(C)[C@@]3(F)[C@@H](O)C[C@@]21C` [HALOBETASOL PROPIONATE], for which the AC50 was > 30 µM in test [1], 13.1 µM in test [2], > 30 µM in test [3] and > 30 µM in test [4].

For `CC(N)Cc1ccc(O)cc1` (stereo unspecified) [HYDROXYAMPHETAMINE], the concentration at half-maximal activity (AC50) in test [1], in [2], in test [3] and in test [4] was > 30 µM each time.

With `Cc1cc(NC(=O)C2=C(O)c3ccccc3S(=O)(=O)N2C)no1` [ISOXICAM], the AC50 in [1], in test [2], in test [3] and in test [4] was > 30 µM throughout.

Consider `COc1cc2c(cc1OC)CC(=O)N(CCCN(C)C[C@H]1Cc3cc(OC)c(OC)cc31)CC2` [IVABRADINE], for which the AC50 in test [1] is > 30 µM; in test [2] it was > 30 µM; in test [3], 3.35 µM; in test [4], > 30 µM.

Take `CC(C)(C)NC[C@H](O)COc1cccc2c1CCCC2=O` [LEVOBUNOLOL]: the half-maximal activity concentration (AC50) in test [1], in [2] and in [3] was > 30 µM in each case.

With `Cc1c(N(C)CS(=O)(=O)O)c(=O)n(-c2ccccc2)n1C` [METAMIZOLE], the concentration at half-maximal activity (AC50) in [1], in test [2] and in test [3] was > 30 µM in each case.

Regarding `CN1C(=O)/C(=N\NC(N)=S)c2ccccc21` [METHISAZONE], the AC50 was > 30 µM in test [1], 13.1 µM in test [2], > 30 µM in test [3] and 26.4 µM in test [4].

In the case of `COC(=O)c1ccc(O)cc1` [METHYLPARABEN], the concentration at half-maximal activity (AC50) in test [1], in test [2] and in [3] was > 30 µM each time.

On to `O=[N+]([O-])c1ccc(O)c2ncccc12` [NITROXOLINE], for which the half-maximal activity concentration (AC50) was > 30 µM in test [7]; > 30 µM in [1]; 4.9 µM at Histamine H1 receptor; > 30 µM on Cannabinoid receptor 1; > 30 µM in test [3]; > 30 µM in test [6].

For `CCCc1nc(C(C)(C)O)c(C(=O)O)n1Cc1ccc(-c2ccccc2-c2nnn[nH]2)cc1` [OLMESARTAN], the AC50 in test [1], in test [2], in test [3] and in [4] was > 30 µM throughout.

As for `NCC(CC(=O)O)c1ccccc1` (stereo unspecified) [PHENIBUT], the AC50 in test [1], in test [2], in [3] and in [4] was > 30 µM throughout.

With `COc1ccc(CN(CCN(C)C)c2ccccn2)cc1` [PYRILAMINE], the half-maximal activity concentration (AC50) in test [1] is 7.07 µM; in test [2], > 30 µM; in test [3] it was 8.61 µM.
